Assay results as given in ChEMBL document CHEMBL5126529, “Drug discovery of histone lysine demethylases (KDMs) inhibitors (progress from 2018 to present)” (Eur J Med Chem, 2022).
One block for each compound: values may come before it.

How the values were obtained:
[1] = target: T1, Lysine-specific histone demethylase 1A (Homo sapiens, UniProt O60341); assay: Inhibition of recombinant human KDM1A using fluorogenic substrate incubated for 30 mins followed by substrate addition measured after 10 mins by fluorescence based assay
[2] = target: T1, Lysine-specific histone demethylase 1A; assay: Inhibition of KDM1A (unknown origin) by fluorescence based assay
[3] = target: T2, Amine oxidase [flavin-containing] A (Homo sapiens, UniProt P21397); assay: Inhibition of MAO-A (unknown origin) by luminescence based assay
T2 sequence (P21397 whole entry): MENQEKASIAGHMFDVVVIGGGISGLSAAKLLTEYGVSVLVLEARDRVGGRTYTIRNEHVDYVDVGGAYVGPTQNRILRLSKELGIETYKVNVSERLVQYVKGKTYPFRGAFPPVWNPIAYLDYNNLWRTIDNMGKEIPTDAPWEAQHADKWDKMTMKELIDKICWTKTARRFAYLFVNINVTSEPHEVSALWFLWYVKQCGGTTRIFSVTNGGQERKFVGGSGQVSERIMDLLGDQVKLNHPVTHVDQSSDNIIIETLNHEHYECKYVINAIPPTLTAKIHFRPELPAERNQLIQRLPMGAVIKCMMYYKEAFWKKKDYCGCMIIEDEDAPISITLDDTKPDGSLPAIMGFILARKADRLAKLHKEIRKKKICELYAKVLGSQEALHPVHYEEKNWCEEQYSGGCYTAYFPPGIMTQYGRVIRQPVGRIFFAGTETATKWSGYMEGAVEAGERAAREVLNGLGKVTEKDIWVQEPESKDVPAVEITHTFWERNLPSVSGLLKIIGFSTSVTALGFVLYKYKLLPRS

[4] = target: T1, Lysine-specific histone demethylase 1A; assay: Inhibition of recombinant human KMD1A (172 to 852 residues) using Bio-H3K4me2 peptide as substrate incubated for 1 hr by Lance ultra TR-FRET assay
[5] = target: T3, Amine oxidase [flavin-containing] B (Homo sapiens, UniProt P27338); assay: Inhibition of MAO-B (unknown origin) by luminescence based assay
T3 sequence (P27338 whole entry): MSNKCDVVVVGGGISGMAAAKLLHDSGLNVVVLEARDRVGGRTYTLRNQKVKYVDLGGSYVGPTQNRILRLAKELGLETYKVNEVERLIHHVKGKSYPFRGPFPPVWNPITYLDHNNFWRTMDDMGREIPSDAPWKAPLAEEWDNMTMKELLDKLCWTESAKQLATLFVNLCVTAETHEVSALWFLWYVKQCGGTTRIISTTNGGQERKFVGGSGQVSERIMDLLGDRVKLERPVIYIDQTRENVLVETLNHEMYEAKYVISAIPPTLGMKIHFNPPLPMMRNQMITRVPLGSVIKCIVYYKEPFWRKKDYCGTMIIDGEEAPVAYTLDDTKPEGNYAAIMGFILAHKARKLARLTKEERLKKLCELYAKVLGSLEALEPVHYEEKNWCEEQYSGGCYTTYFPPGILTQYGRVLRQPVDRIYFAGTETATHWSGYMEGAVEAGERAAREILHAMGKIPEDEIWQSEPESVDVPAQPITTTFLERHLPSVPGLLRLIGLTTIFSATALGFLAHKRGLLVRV

[6] = target: T1, Lysine-specific histone demethylase 1A; assay: Binding affinity to human KDM1A (172 to 833 residues) assessed as inhibition constant using Lys4-dimethylated H3 peptide as substrate incubated for 30 mins by enzymatic assay
[7] = target: T3, Amine oxidase [flavin-containing] B; assay: Binding affinity to human MAO-B assessed as inhibition constant using tyramine as substrate incubated for 30 mins by enzymatic assay
[8] = target: Lysine-specific histone demethylase 2 (Homo sapiens, UniProt Q8NB78); assay: Binding affinity to KDM1B (unknown origin) assessed as inhibition constant using Lys4-dimethylated H3 peptide as substrate incubated for 30 mins by enzymatic assay
Sequence of Lysine-specific histone demethylase 2 (Q8NB78 whole entry): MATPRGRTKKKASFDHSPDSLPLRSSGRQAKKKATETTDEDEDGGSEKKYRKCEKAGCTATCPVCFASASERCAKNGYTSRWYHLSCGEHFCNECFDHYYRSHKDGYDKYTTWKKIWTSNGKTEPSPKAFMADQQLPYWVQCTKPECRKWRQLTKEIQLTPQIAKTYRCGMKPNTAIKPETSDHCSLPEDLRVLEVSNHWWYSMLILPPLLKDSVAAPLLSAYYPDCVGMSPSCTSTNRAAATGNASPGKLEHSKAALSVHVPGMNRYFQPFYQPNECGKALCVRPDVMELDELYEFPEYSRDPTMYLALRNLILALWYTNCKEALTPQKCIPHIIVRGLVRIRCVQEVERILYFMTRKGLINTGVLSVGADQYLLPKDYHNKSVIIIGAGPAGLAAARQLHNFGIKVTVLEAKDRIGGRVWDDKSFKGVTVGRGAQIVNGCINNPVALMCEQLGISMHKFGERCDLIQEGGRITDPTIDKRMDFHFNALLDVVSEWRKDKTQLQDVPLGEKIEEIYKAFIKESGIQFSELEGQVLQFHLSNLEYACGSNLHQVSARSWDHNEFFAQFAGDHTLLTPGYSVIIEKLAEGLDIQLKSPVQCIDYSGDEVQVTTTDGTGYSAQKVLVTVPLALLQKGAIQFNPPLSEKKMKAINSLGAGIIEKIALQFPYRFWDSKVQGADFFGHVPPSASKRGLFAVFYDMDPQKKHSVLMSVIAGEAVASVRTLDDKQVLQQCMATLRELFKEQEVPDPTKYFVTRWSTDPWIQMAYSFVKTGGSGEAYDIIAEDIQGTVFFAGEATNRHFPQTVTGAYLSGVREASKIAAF

[9] = target: T2, Amine oxidase [flavin-containing] A; assay: Binding affinity to human MAO-A assessed as inhibition constant using tyramine as substrate incubated for 30 mins by enzymatic assay
[10] = target: Probable JmjC domain-containing histone demethylation protein 2C (Homo sapiens, UniProt Q15652); assay: Binding affinity to CM7 sensor chip immobilized partial-length JMJD1C (2274 to 2498 residues) (unknown origin) expressed in Escherichia coli assessed as dissociation constant incubated for 60 secs by SPR analysis
Sequence of Probable JmjC domain-containing histone demethylation protein 2C (Q15652 whole entry, the tested form may be a part): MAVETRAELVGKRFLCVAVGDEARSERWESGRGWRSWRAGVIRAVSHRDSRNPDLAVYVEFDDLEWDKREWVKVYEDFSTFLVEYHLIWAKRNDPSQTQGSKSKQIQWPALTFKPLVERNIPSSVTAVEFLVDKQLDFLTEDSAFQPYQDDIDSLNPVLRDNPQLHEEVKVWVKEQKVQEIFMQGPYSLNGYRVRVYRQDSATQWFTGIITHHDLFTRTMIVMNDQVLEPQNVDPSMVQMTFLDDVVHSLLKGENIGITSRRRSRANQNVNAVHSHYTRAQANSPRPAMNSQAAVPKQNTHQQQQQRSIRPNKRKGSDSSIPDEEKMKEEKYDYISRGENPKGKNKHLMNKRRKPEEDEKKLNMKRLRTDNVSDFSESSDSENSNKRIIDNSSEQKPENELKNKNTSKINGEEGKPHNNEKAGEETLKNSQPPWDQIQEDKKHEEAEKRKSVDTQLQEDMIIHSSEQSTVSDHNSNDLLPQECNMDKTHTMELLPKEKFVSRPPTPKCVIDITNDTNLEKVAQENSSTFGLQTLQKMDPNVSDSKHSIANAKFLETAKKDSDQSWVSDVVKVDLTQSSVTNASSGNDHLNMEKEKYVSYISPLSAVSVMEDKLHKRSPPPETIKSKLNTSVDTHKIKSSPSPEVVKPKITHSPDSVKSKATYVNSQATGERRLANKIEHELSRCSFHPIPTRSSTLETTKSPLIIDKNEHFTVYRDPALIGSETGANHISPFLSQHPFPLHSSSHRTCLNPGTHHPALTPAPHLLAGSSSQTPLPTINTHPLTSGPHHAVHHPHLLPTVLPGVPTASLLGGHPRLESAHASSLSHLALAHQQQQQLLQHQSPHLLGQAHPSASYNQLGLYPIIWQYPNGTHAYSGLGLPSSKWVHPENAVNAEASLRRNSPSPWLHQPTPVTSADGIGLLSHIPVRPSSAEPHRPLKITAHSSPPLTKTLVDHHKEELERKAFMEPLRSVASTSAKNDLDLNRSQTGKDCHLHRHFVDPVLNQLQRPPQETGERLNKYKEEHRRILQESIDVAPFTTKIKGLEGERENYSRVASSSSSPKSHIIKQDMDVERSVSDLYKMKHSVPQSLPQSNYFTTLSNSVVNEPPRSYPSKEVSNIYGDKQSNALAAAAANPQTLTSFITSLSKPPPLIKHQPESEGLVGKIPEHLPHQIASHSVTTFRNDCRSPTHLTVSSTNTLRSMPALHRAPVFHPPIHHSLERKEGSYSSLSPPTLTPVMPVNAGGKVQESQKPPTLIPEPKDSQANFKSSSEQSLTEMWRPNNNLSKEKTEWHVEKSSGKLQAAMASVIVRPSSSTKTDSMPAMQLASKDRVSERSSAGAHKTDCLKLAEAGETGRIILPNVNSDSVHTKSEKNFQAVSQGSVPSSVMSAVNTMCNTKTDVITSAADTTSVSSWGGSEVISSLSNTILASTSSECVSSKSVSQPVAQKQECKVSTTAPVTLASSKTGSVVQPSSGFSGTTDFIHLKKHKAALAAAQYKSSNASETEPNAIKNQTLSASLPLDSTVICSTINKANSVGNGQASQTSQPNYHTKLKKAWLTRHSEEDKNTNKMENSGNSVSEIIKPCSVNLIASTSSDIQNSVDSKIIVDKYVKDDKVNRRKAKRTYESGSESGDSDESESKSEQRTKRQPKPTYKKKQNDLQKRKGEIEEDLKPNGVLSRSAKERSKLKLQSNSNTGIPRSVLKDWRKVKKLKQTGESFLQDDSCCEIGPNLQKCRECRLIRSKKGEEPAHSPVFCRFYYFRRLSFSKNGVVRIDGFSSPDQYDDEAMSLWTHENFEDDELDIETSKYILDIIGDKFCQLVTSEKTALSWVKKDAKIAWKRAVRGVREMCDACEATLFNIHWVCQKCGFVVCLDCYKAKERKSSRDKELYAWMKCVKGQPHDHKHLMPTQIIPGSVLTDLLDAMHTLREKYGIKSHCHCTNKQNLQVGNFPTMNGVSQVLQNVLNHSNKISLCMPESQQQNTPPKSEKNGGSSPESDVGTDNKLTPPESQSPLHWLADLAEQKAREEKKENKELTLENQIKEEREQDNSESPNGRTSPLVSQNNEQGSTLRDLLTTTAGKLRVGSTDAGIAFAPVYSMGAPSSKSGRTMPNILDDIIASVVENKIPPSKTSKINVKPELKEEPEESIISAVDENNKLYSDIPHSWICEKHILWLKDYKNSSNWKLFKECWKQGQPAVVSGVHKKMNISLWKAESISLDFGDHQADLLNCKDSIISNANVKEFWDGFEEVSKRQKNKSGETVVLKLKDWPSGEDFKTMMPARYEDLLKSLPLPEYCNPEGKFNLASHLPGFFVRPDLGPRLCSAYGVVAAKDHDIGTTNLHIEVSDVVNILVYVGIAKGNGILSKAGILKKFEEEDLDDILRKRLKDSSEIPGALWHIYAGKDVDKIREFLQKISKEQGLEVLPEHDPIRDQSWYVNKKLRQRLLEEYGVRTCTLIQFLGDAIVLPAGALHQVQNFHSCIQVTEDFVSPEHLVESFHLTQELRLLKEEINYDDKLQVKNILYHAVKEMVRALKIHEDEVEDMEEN

[11] = target: Lysine-specific demethylase 3B (Homo sapiens, UniProt Q7LBC6); assay: Binding affinity to CM7 sensor chip immobilized full-length KDM3B (unknown origin) expressed in Sf9 insect cells assessed as dissociation constant incubated for 60 secs by SPR analysis
Sequence of Lysine-specific demethylase 3B (Q7LBC6 whole entry, the tested form may be a part): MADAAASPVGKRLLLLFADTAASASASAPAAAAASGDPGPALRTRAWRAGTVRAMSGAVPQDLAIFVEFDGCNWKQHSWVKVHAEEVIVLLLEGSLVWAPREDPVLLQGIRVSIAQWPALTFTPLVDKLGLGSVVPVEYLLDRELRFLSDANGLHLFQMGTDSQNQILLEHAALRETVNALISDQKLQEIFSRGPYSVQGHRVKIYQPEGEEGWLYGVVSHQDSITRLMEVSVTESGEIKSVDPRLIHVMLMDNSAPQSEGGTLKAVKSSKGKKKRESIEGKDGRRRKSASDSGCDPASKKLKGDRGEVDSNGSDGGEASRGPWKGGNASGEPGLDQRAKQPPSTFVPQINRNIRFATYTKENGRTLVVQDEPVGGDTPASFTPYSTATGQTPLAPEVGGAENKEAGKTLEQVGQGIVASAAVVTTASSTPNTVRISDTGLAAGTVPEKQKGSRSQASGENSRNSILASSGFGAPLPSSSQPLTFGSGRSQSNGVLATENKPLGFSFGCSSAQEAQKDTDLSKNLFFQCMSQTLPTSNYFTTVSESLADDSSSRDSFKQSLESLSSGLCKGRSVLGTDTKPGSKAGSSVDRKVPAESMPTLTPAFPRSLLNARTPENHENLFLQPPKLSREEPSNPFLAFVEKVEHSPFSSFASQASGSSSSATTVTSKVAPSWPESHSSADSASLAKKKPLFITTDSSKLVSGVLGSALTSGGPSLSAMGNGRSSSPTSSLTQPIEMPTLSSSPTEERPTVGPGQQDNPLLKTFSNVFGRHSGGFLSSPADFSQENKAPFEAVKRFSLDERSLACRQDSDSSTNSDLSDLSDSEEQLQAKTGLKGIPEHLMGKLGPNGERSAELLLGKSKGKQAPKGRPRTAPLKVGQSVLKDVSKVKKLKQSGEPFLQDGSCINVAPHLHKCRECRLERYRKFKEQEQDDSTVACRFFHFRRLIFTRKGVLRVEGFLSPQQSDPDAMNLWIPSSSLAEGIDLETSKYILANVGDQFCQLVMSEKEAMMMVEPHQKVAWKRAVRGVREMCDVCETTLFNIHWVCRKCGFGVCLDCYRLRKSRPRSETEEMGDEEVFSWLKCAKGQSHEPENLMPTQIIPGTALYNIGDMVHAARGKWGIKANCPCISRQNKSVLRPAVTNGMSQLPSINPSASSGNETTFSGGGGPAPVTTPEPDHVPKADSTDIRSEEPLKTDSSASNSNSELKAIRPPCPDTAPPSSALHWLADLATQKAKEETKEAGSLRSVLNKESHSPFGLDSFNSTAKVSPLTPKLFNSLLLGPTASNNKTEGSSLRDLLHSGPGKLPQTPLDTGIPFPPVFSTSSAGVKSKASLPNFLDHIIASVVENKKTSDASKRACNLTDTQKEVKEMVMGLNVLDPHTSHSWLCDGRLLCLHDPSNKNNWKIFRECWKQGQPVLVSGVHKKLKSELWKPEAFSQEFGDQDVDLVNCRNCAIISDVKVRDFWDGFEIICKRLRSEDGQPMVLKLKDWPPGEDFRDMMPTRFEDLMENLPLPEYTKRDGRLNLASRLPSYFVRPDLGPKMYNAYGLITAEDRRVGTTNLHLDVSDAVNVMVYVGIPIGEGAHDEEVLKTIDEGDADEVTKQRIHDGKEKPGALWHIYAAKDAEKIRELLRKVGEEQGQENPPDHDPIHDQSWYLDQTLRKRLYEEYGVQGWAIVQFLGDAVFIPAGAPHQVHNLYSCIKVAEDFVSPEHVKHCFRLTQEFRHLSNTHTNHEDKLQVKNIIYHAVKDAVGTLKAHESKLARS

[12] = target: T1, Lysine-specific histone demethylase 1A; assay: Inhibition of recombinant human KDM1A (158 to 852 residues) using H3K4Me2 peptide as substrate preincubated for 15 mins followed by substrate addition measured after 60 mins by AlphaLISA assay
MAO-B [13] = target: T4, MAO-B (Homo sapiens, UniProt P27338); assay: Inhibition of MAO-B (unknown origin) at 10 uM relative to control
T4 sequence (P27338 whole entry): T3 sequence (P27338 whole entry)

MAO-A [14] = target: T5, MAO-A (Homo sapiens, UniProt P21397); assay: Inhibition of MAO-A (unknown origin) at 10 uM relative to control
T5 sequence (P21397 whole entry): T2 sequence (P21397 whole entry)

MAO-B [15] = target: T4, MAO-B; assay: Inhibition of recombinant MAO-B (unknown origin) at 10 uM by luminometry relative to control
MAO-A [16] = target: T5, MAO-A; assay: Inhibition of recombinant MAO-A (unknown origin) at 10 uM by luminometry relative to control
[17] = target: T1, Lysine-specific histone demethylase 1A
MAO-A [18] = target: T5, MAO-A; assay: Inhibition of recombinant MAO-A (unknown origin) using luciferin substrate at 100 uM preincubated for 15 mins followed by substrate addition measured after 1 hr by luciferase based assay relative to control; settings: probe luciferin substrate, time 75 min
MAO-B [19] = target: T4, MAO-B; assay: Inhibition of recombinant MAO-B (unknown origin) using luciferin substrate at 100 uM preincubated for 15 mins followed by substrate addition measured after 1 hr by luciferase based assay relative to control; settings: probe luciferin substrate, time 75 min
[20] = target: Lysine-specific demethylase 5C (Homo sapiens, UniProt P41229); assay: Inhibition of N-terminal FLAG/His-tagged full-length human KDM5C (2 to 1560 residues) expressed in baculovirus infected Sf9 insect cells using peptide substrate at 10 uM incubated for 2 hrs by Alpha Screen assay relative to control

IC50 [1]: 50 nM
SMILES: Cn1c(C(=O)Nc2cccc3c2N(Cc2ccc(OC4CCNCC4)cc2)CCC3)cc2ccccc21

IC50 [2]: 2440 nM
SMILES: COc1cc2c(cc1OC)-c1c(C)c3ccc(OC)c(OC)c3c[n+]1CC2 [DEHYDROCORYDALINE]

IC50 [3]: 7.29 nM
IC50 [4]: 4800 nM
IC50 [5]: 9410 nM
SMILES: CC1(C)C(N[C@@H]2C[C@H]2c2ccccc2)CCC1N[C@@H]1C[C@H]1c1ccccc1 (some centres not stated)

Ki [6]: 370 nM
Ki [7]: > 250000 nM
Ki [8]: > 250000 nM
Ki [9]: > 250000 nM
SMILES: CN1CCN(C(=O)NC2CC2c2cc(F)cc(F)c2OCc2ccccc2)CC1 (configuration not stated)

Kd [10]: 2700 nM
Kd [11]: 130 nM
SMILES: CC(=O)Nc1ccc(S(=O)(=O)N[C@H]2CO[C@H]3[C@@H]2OC[C@@H]3Nc2nccc(-c3ccccc3)n2)cc1

IC50 [2]: 3970 nM
SMILES: C=C[C@]1(C)C[C@@H]2OC(=O)C(C)=C2C[C@H]1C(=C)C [ISOGERMAFURENOLIDE]

IC50 [12]: 4000 nM
SMILES: COCc1cccc(NC(=O)c2cc3ccccc3n2C)c1COc1ccc(OCC2CCNCC2)cc1

inhibition at 10 µM (MAO-B [13]): 36.8%
inhibition at 10 µM (MAO-A [14]): 23.5%
SMILES: COc1ccc(-c2coc3cc(O)cc(O)c3c2=O)cc1 [BIOCHANIN]

inhibition at 10 µM (MAO-B [15]): 40%
inhibition at 10 µM (MAO-A [16]): 70%
SMILES: COc1cc2c(cc1OC)-c1cc3ccc4c(c3c[n+]1CC2)OCO4

IC50 [17]: 3.9 nM
SMILES: CCCC(=O)NC(c1ccc(N(CC)CC)cc1)c1cc(Cl)c2cccnc2c1O (configuration not stated)

IC50 [17]: 296 nM
SMILES: CCOC(=O)C(c1cc(OC)c(OC)cc1O)N1CCOCC1 (configuration not stated)

inhibition at 1 h, 100 µM (MAO-A [18]): < 5%
inhibition at 1 h, 100 µM (MAO-B [19]): < 5%
SMILES: Cc1ccc(-c2nc(SCc3cn(CC(=O)NC(=O)Nc4ccccn4)nn3)nc(Nc3cccc(C(F)(F)F)c3)c2C#N)cc1

inhibition [20]: 14%
SMILES: COC(=O)c1ccnc(-c2cn(CCN(C)CCCCCCCCCCOc3cccc4c3C(=O)N(C3CCC(=O)NC3=O)C4=O)nn2)c1 (configuration not stated)
